Where two headings read alike, the source gives them in different places.
Experiments:
Fertility study = conditions: oral or intravenous, dose and schedule as chronic toxicity test
[1] = rats
Method: (§1) Long-term (chronic) toxicity study: Mode of treatment and dilution by either water or normal saline were identical to acute toxicity study. Chronic toxicity study was made with four species of animals: mice, rat, rabbit and dog.
Rats. For experiment with these animals, 4 batches of rats were used per mode of treatment. Each batch contained 5 rats either male or female weighing 75-80 g per animal. […] Then, the rats were injected for 3 cycles; one cycle consisted of injections for two consecutive days followed by a rest of 1 day.
(§2) Total number of animals in each group including control and different modes of treatment: 6 (mice), 5 (rats) and 4 (rabbits). Each set of experiment was repeated 4 times for mice and rats and for rabbits 2 times respectively. […] In Table 3, αWeight of animals for mice and rats in gm and for rabbit in Kg.
Details are described in the Tables.

EAC cells [2] = assay: Increase in life span study of EAC cell-inoculated mice; type: in vivo; conditions: 14 days from day 3
Method: Increase in life span study. For increase in life span study (ILS), testing was evaluated by calculating the median survival time (MST) of the treated (T) and control (C) groups and expressed as ILS value [(T/C−1)×100].
The treatment started from day 3. The amount of each compound indicated in the parentheses is the amount administered per kg body weight per day.
The day on which 10^5 EAC cells were inoculated into each mouse was considered as day 0. The treatment started from day 3. […] 15 animals received a particular mode of treatment. Control group received only normal saline. […] Each set of experiment was repeated 4 times.

[3] = Long-term (chronic) toxicity study, rabbits; conditions: rabbit, long-term treatment
Description: as §1
Rabbits. For experiments with rabbits, two groups were used per mode of treatment. Each group in each mode of treatment consists of 4 animals, either male or female.
However, each animal was placed in a separate cage.
as §2
We also measured the body weights of the animals. […] Besides, we also measured several marker enzymes and metabolites in the blood and sera of dog (see below).

[4] = Pharmacokinetics, single oral dose study; conditions: for ka (apparent absorption rate constant): 1 to 4 h; for k (elimination rate constant): 4-8 h; for half-life / CL/F / Cmax / Tmax: mouse, whole blood, po
EAC cells [5] = assay: Tumor growth inhibition study; conditions: for % of cells present in respect of the control / No. of EAC cells (in million) / Volume of packed cells: day 3 to day 16
[6] = Pharmacokinetics, repeat oral dose study; type: in vivo; conditions: mice; for V / k / half-life at 30 days: oral 100 mg/kg body wt./day; for half-life at 30 days: mouse, whole blood, po, 100 mg/kg, read-out: t½ (converted)
[7] = Table 7, MG 30 mg/kg/day ip 0.5 ml
[8] = Table 7, MG 100 mg/kg/day ip 0.5 ml
[9] = Table 11, MG 30 mg/kg/day ip 0.25 ml
[10] = Table 11, MG 100 mg/kg/day ip 0.25 ml
[11] = mice, single oral dose 50 mg/kg
[12] = mice, single oral dose 100 mg/kg
[13] = mice, single oral dose 200 mg/kg
[14] = time after last dose Up to 48 h
[15] = oral 100 mg/kg/day, last dose day 30

CC(=O)C=O [methylglyoxal]
abnormalities among the litters (Fertility study): Neither deformation of organs nor any other abnormalities | local reaction to intravenous injections ([1]; intravenous, from 3rd week of the treatment): swelling appeared in the tail and adjoining regions | toxic effect on physical condition and behavioral pattern, death ([1]; multiple dose, observed up to 90 days after treatment): No toxic effect | 60 day survivors/15 animals (EAC cells [2]; [7]): 1 | ILS value (EAC cells [2]; [7]): 34% | Median survival time (EAC cells [2]; [7]): 26 days | 60 day survivors/15 animals (EAC cells [2]; [8]): 10 | ILS value (EAC cells [2]; [8]): Cure | Median survival time (EAC cells [2]; [8]): Indefinite | 60 day survivors/15 animals (EAC cells [2]; [9]): 1 | ILS value (Median survival time of (Treated/Control − 1) × 100]) (EAC cells [2]; [9]): 35% | Median survival time (EAC cells [2]; [9]): 27 days | 60 day survivors/15 animals (EAC cells [2]; [10]): 11 | ILS value (Median survival time of (Treated/Control − 1) × 100]) (EAC cells [2]; [10]): Cure | Median survival time (EAC cells [2]; [10]): Indefinite | general physical conditions and behavioral pattern vs control [3]: no abnormalities | Lag time [4, 11]: ≈55 min | V (apparent volume of distribution) [4, 11]: 23.31 L/kg | ka (apparent absorption rate constant) [4, 11]: 0.277 h⁻¹ | k (elimination rate constant) [4, 11]: 0.33 h⁻¹ | Lag time [4, 12]: ≈50 min | V (apparent volume of distribution) [4, 12]: 41.84 L/kg | ka (apparent absorption rate constant) [4, 12]: 0.223 h⁻¹ | k (elimination rate constant) [4, 12]: 0.198 h⁻¹ | Lag time [4, 13]: ≈50 min | V (apparent volume of distribution) [4, 13]: 80.97 L/kg | ka (apparent absorption rate constant) [4, 13]: 0.216 h⁻¹ | k (elimination rate constant) [4, 13]: 0.192 h⁻¹ | lag time ([4]; mice, single oral dose, all the three doses (50, 100, 200 mg/kg)): 50 to 55 min | concentrations in plasma and whole blood compared ([4]; mice, untreated and orally treated): almost identical | half-life [4]: 2.1 to 3.6 h | CL/F ([4]; 50 mg/kg): 128 mL/min/kg | Cmax ([4]; 50 mg/kg): 13.9 µM | half-life ([4]; 50 mg/kg): 2.1 h | Tmax ([4]; 50 mg/kg, tmax, mice, single oral dose 50 mg/kg): ~4 h | CL/F ([4]; 100 mg/kg): 138 mL/min/kg | Cmax ([4]; 100 mg/kg): 18.7 µM | half-life ([4]; 100 mg/kg): 3.5 h | Tmax ([4]; 100 mg/kg, tmax, mice, single oral dose 100 mg/kg): ~4 h | CL/F ([4]; 200 mg/kg): 259 mL/min/kg | Cmax ([4]; 200 mg/kg): 19.5 ± 3.36 µM | half-life ([4]; 200 mg/kg): 3.6 h | Tmax ([4]; 200 mg/kg, time of peak blood concentration (tmax), mice, single oral doses of 50, 100 and 200 mg/kg): 4 h | Tmax ([4]; 200 mg/kg, tmax, mice, single oral dose 200 mg/kg): ~4 h | effect on cell proliferation in the peritoneal cavity (EAC cells [5]; EAC cell-inoculated mice, doses of Table 9): significant inhibitory effect | % of cells present in respect of the control (EAC cells [5]; MG 30 mg/kg/day, Day 10): 5% | No. of EAC cells (in million) (EAC cells [5]; MG 30 mg/kg/day, Day 10): 15 ± 2 million | % of cells present in respect of the control (EAC cells [5]; MG 30 mg/kg/day, Day 14): 13% | No. of EAC cells (in million) (EAC cells [5]; MG 30 mg/kg/day, Day 14): 230 ± 10 million | Volume of packed cells (EAC cells [5]; MG 30 mg/kg/day, Day 14): 0.26 ± 0.02 mL | % of cells present in respect of the control (EAC cells [5]; MG 30 mg/kg/day, Day 18): 23% | No. of EAC cells (in million) (EAC cells [5]; MG 30 mg/kg/day, Day 18): 820 ± 30 million | Volume of packed cells (EAC cells [5]; MG 30 mg/kg/day, Day 18): 0.96 ± 0.05 mL | % of cells present in respect of the control (EAC cells [5]; MG 100 mg/kg/day, Day 10): 0% | % of cells present in respect of the control (EAC cells [5]; MG 100 mg/kg/day, Day 14): 0% | % of cells present in respect of the control (EAC cells [5]; MG 100 mg/kg/day, Day 18): 0% | V ([6]; time after last dose 48-120 h): 50.89 L/kg | k ([6]; time after last dose 48-120 h): 0.0231 h − 1 | V [6, 14]: 73.90 L/kg | k [6, 14]: 0.0017 h − 1 | day from which peak concentration was achieved [6, 15]: three | day on which the basal level was reached [6, 15]: ~35 days | half-life at 30 days ([6]; time after last dose 48-120 h): 30 h | half-life at 30 days [6, 14]: 408 h
